According to US10774085B2, “Method of treatment using substituted pyrazolo[1,5-A] pyrimidine compounds” (Array BioPharma Inc., priority 2008, dated 2020):

Target: histidine-tagged recombinant human TrkA, cytoplasmic domain (Homo sapiens (Human), UniProt P04629)
Assay: TrkA ELISA Assay
Format: biochemical
Conditions: 2.5 nM TrkA, 500 μM ATP; read-out: TrkA Elisa Enzyme IC50
Method: An enzyme-linked immunosorbant assay (ELISA) was used to assess TrkA kinase activity in the presence of inhibitors. Immulon 4HBX 384-well microtiter plates (Thermo part #8755) were coated with a 0.025 mg/mL solution of poly (Glu, Ala, Tyr; 6:3:1; Sigma P3899). Various concentrations of test compound, 2.5 nM TrkA (Invitrogen Corp., histidine-tagged recombinant human TrkA, cytoplasmic domain), and 500 μM ATP were incubated for 25 minutes at ambient temperature in the coated plates while shaking. The assay buffer consisted of 25 mM MOPS pH 7.5, 0.005% (v/v) Triton X-100 and 5 mM MgCl2. The reaction mixture was removed from the plate by washing with PBS containing 0.1% (v/v) Tween 20. The phosphorylated reaction product was detected using 0.2 μg/mL of a phosphotyrosine specific monoclonal antibody (clone PY20) conjugated to horseradish peroxidase in conjunction with the TMB Peroxidase Substrate System (KPL). After the addition of 1M phosphoric acid, the chromogenic substrate color intensity was quantitated via absorbance at 450 nm. IC50 values were calculated using either a 4 or 5-parameter logistic curve fit.

Sequence of histidine-tagged recombinant human TrkA, cytoplasmic domain (P04629 440-796): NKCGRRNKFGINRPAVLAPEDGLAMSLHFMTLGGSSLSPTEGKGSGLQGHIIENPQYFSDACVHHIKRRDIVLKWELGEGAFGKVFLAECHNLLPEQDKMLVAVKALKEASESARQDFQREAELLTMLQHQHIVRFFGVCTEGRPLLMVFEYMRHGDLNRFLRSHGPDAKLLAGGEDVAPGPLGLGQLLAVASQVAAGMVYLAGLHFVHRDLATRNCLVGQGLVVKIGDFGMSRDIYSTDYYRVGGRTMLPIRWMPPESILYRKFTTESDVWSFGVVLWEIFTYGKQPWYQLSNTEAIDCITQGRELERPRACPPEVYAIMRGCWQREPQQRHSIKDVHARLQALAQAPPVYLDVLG

**Q.** Which IC50 does the source give for COc1ccc(F)cc1[C@H]1CCCN1c1ccn2ncc(NC(=O)N3CCC[C@H](O)C3)c2n1 [Example 91, (S)—N-(5-((R)-2-(5-fluoro-2-methoxyphenyl)pyrrolidin-1-yl)pyrazolo[1,5-a]pyrimidin-3-yl)-3-hydroxypiperidine-1-carboxamide] here?
**A.** The IC50 was 10.2 nM.
